Experimental data taken from BindingDB's records for doi:10.1016/s0960-894x(03)00298-1 (Cubist Pharmaceutical, 2003).

Columns and labels:
[1] = target: Methionyl-tRNA synthetase (Enterococcus faecalis); test: Inhibitory activity against Enterococci faecalis methionyl-tRNA synthetase (EfMetRS)
[2] = target: Methionyl-tRNA synthetase (Staphylococcus aureus); test: Inhibitory activity against Staphylococcus aureus methionyl-tRNA synthetase (SaMetRS)
[3] = target: Methionyl-tRNA synthetase (Staphylococcus aureus); test: as above; remark: listed apart in the source
[4] = target: Methionyl-tRNA synthetase (Staphylococcus aureus); test: as above; remark: listed apart in the source

IC50 [1] | IC50 [3] | SMILES | other results
11.4 µM |  | O=C(O)c1cc(-c2ccc(-c3ccc(Cl)cc3Cl)cc2)n(CCO)n1 [5-(2',4'-Dichloro-biphenyl-4-yl)-1-(2-hydroxy-ethyl)-1H-pyrazole-3-carboxylic acid] | IC50 [2]: 4.46 µM
 | 17.2 µM | O=C(O)c1cc(-c2ccc(-c3ccc(F)c(Cl)c3)cc2)n(-c2ccc(Cl)cc2Cl)n1 [5-(3'-Chloro-4'-fluoro-biphenyl-4-yl)-1-(2,4-dichloro-phenyl)-1H-pyrazole-3-carboxylic acid] | 
 |  | CCn1nc(C(=O)O)cc1-c1ccc(-c2ccc(Cl)cc2Cl)cc1 [5-(2',4'-Dichloro-biphenyl-4-yl)-1-ethyl-1H-pyrazole-3-carboxylic acid] | IC50 [4]: 1.02 µM
8.99 µM | 4.88 µM | O=C(O)c1cc(-c2ccc(-c3ccc(Cl)cc3Cl)cc2)n(-c2ccc(Cl)cc2Cl)n1 [5-(2',4'-Dichloro-biphenyl-4-yl)-1-(2,4-dichloro-phenyl)-1H-pyrazole-3-carboxylic acid] | 
 |  | COc1ccc(-n2nc(C(=O)O)cc2-c2ccc(-c3ccc(Cl)cc3Cl)cc2)cc1 [5-(2',4'-Dichloro-biphenyl-4-yl)-1-(4-methoxy-phenyl)-1H-pyrazole-3-carboxylic acid] | IC50 [4]: 10.5 µM
 | 2.68 µM | O=C(O)c1cc(-c2ccc(-c3ccc(Cl)cc3Cl)cc2)nn1Cc1ccccn1 [5-(2',4'-Dichloro-biphenyl-4-yl)-2-pyridin-2-ylmethyl-2H-pyrazole-3-carboxylic acid] | 
17.8 µM |  | COc1ccccc1-n1nc(C(=O)O)cc1-c1ccc(-c2ccc(Cl)cc2Cl)cc1 [5-(2',4'-Dichloro-biphenyl-4-yl)-1-(2-methoxy-phenyl)-1H-pyrazole-3-carboxylic acid] | IC50 [4]: 1.51 µM
 | 0.5 µM | O=C(O)c1cc(-c2ccc(-c3ccc(Cl)cc3Cl)cc2)n(Cc2ccncc2)n1 [5-(2',4'-Dichloro-biphenyl-4-yl)-1-pyridin-4-ylmethyl-1H-pyrazole-3-carboxylic acid] | 
 | 40.9 µM | O=C(O)c1cc(-c2ccc(-c3ccccc3)cc2)n(-c2ccc(Cl)cc2Cl)n1 [5-Biphenyl-4-yl-1-(2,4-dichloro-phenyl)-1H-pyrazole-3-carboxylic acid] | 
29.9 µM |  | O=C(O)c1cc(-c2ccc(-c3ccc(Cl)cc3Cl)cc2)n(Cc2ccccc2)n1 [1-Benzyl-5-(2',4'-dichloro-biphenyl-4-yl)-1H-pyrazole-3-carboxylic acid] | IC50 [4]: 3.94 µM
 |  | O=C(O)c1cc(-c2ccc(-c3ccc(Cl)cc3Cl)cc2)n(-c2cccnc2)n1 [5-(2',4'-Dichloro-biphenyl-4-yl)-1-pyridin-3-yl-1H-pyrazole-3-carboxylic acid] | IC50 [2]: 0.3 µM
 | 5.47 µM | O=C(O)c1cc(-c2ccc(-c3ccc(Cl)cc3Cl)cc2)n(-c2ccccc2)n1 [5-(2',4'-Dichloro-biphenyl-4-yl)-1-phenyl-1H-pyrazole-3-carboxylic acid] | 
 |  | O=C(O)Cn1nc(C(=O)O)cc1-c1ccc(-c2ccc(Cl)cc2Cl)cc1 [1-Carboxymethyl-5-(2',4'-dichloro-biphenyl-4-yl)-1H-pyrazole-3-carboxylic acid] | IC50 [4]: 3.42 µM
3.7 µM |  | O=C(NCc1nnn[nH]1)c1cc(-c2ccc(-c3ccc(Cl)cc3Cl)cc2)n(-c2cccnc2)n1 [5-(2',4'-Dichloro-biphenyl-4-yl)-1-pyridin-3-yl-1H-pyrazole-3-carboxylic acid (1H-tetrazol-5-ylmethyl)-amide] | IC50 [2]: 0.13 µM
1.93 µM |  | O=C(O)c1cc(-c2ccc(-c3ccc(Cl)cc3Cl)cc2)n(-c2ccccn2)n1 [5-(2',4'-Dichloro-biphenyl-4-yl)-1-pyridin-2-yl-1H-pyrazole-3-carboxylic acid] | IC50 [2]: 0.63 µM
 | 0.66 µM | O=C(O)c1cc(-c2ccc(-c3ccc(Cl)cc3Cl)cc2)n(Cc2cccnc2)n1 [5-(2',4'-Dichloro-biphenyl-4-yl)-1-pyridin-3-ylmethyl-1H-pyrazole-3-carboxylic acid] | 
 |  | NC(=O)c1cc(-c2ccc(-c3ccc(Cl)cc3Cl)cc2)n(-c2ccccn2)n1 [5-(2',4'-Dichloro-biphenyl-4-yl)-1-pyridin-2-yl-1H-pyrazole-3-carboxylic acid amide] | IC50 [2]: 2.95 µM
